Results published in patent US11208446B2, “Agents and methods for treating CBP-dependent cancers” (priority 2016, dated 2021).

Key:
[1] = tested on: MV411 cells; assay: Flow cytometric analysis of apoptosis (Annexin-V); assay type: cell-based, human; conditions: 20 μM, 24 hours
Description: Flow cytometric analysis of Apoptosis. Cells were resuspended to a concentration of 1×10^6 cells were plated in triplicate in a 12-well tissue culture plate. For assessment of annexin V staining, cells were washed with PBS and then resuspended in PBS with Annexin V-APC (BioLegend) and propidium iodide at a dilution of 1:1000. For intracellular detection of cleaved caspase 3, cells were fixed and permeabilized using the BD Cytofix/Cytoperm Fixation/Permeabilization solution according to the manufacturer's instructions (BD Biosciences. Cells were then stained using the Alexa Fluor 647-conjugated anti-active caspase-3 (BD Biosciences) at a dilution of 1:50. Cells were incubated for 30 minutes room temperature in the dark, washed, and then analyzed using the BD LSRFortessa cell analyzer.

[2] = biological target: T1, MYB:CBP complex (Homo sapiens, UniProt Q92793); assay: Dissociation of MYB:CBP complex in AML cells (co-immunoprecipitation); assay type: cell-based
T1 construct: endogenous in cells; host or cells: MV411 human AML cells
T1 sequence (Q92793 2-2442 limits assumed, one chain of several): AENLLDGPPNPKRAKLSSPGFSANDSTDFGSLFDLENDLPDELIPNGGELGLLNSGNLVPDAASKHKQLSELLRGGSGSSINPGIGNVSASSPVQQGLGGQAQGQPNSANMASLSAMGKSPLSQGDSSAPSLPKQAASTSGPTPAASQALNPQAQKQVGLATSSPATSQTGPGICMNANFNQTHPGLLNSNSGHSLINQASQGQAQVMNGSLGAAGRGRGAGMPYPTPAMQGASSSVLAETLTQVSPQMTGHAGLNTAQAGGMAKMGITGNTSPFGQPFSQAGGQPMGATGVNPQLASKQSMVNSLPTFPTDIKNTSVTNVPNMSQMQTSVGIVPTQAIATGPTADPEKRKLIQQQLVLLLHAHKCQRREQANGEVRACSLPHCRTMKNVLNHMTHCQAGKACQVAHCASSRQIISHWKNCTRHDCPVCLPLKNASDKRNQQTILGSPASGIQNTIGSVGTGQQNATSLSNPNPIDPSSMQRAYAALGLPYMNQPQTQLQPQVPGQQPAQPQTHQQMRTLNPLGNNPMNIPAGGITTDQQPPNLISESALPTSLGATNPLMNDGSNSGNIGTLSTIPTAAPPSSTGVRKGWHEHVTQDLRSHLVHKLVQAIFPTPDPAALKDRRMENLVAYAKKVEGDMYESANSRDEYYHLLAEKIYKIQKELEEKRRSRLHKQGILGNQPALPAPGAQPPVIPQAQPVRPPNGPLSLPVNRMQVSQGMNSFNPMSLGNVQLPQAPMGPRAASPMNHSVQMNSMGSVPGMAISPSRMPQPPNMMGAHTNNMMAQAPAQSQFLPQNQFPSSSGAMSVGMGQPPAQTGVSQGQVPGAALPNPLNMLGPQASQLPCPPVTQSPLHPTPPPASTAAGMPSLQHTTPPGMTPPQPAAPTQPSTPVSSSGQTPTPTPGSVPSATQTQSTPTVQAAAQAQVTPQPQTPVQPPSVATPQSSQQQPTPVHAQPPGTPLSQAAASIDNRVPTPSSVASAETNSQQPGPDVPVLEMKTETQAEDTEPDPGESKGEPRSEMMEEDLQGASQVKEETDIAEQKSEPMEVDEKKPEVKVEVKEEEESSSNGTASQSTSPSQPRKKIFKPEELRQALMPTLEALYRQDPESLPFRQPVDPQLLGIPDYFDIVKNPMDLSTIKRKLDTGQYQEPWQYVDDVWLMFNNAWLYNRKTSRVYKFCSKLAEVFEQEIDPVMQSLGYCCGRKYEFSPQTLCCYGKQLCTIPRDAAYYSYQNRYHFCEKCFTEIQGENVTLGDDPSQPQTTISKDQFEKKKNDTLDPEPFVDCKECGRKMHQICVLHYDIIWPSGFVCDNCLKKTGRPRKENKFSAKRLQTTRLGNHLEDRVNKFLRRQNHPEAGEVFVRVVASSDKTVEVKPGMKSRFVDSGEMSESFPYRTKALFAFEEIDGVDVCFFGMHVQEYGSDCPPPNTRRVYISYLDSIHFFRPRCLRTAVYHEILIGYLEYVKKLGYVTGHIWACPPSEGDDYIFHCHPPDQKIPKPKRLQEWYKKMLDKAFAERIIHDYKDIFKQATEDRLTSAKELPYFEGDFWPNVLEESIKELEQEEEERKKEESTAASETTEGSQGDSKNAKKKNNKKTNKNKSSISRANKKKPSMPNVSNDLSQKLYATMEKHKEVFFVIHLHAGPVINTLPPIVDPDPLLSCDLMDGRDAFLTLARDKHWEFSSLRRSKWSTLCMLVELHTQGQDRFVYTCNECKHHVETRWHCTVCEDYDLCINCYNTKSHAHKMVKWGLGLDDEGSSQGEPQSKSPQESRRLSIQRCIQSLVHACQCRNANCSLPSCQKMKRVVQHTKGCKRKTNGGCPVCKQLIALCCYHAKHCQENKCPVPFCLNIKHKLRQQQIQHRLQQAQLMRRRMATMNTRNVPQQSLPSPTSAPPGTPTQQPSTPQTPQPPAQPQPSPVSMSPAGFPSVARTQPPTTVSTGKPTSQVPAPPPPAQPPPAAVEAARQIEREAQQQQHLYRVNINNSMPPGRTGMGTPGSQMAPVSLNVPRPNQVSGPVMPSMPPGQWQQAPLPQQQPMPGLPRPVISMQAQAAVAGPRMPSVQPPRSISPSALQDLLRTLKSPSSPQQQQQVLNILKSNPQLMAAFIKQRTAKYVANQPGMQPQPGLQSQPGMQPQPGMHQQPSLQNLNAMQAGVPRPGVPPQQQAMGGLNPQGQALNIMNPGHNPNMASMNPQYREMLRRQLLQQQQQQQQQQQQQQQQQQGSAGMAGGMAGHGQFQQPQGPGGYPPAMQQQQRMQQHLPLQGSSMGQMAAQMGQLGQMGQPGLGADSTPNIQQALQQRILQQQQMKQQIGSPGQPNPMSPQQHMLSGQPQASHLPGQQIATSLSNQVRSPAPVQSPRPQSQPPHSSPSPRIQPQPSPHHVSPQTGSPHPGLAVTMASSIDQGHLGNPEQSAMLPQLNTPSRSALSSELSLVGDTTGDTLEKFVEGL
Description: Co-immunoprecipitation analysis. 7.5 μg of indicated antibodies were conjugated to 1 mg M-270 Epoxy-coated magnetic beads (Invitrogen) according to manufacturer's instructions. 1×10^7 MV411 cells were collected and washed in cold PBS. Washed cell pellets were resuspended in 350 μL cold lysis buffer (50 mM Tris-HCl pH 7.4, 150 mM NaCl, 1 mM EDTA, 1 mM DTT, 0.5% Triton X-100, supplemented with protease inhibitors described above) and incubated on ice for 10 min. Cells were mechanically disrupted using the Covaris […] adaptive focused sonicator at 50 W peak power, 10% duty cycle, 200 cycles per burst at 4° C. for 300 sec. Lysate was clarified by centrifugation for 15 min at 18,000×g at 4° C. Supernatant (cleared lysate) was diluted in 1.05 mL dilution buffer (50 mM Tris-HCl, 150 mM NaCl, 1 mM EDTA, 1 mM DTT, 10% glycerol, supplemented with protease inhibitors described above for a total volume of 1.4 mL. Diluted lysate was added to 1 mg beads, and immunoprecipitation proceeded for 3 h at 4° C. with rotation. Beads were then washed with lysis buffer twice. Proteins were eluted in 20 μL EB buffer (Invitrogen) for 5 min at room temperature, and eluate was neutralized with 2 μL 1M Tris pH 11. Samples were prepared for Western blot by addition of Laemmli buffer with 50 mM DTT and incubation at 95° C. for 5 min. Presence of MYB and CBP was identified by Western blot as described above.

[3] = tested on: MOLM13, MV411, ML2, and HL60 cell lines; assay: Cell viability, live cell count by Trypan blue exclusion; assay type: cell-based, human; conditions: 10 μM and 20 μM every 48 hours for 6 days
Description: Cell culture. The human AML lines MV411, MOLM13, ML2, and HL60 were obtained from the American Type Culture Collection (ATCC, Manassas, Va., USA). Umbilical cord blood was obtained from the New York Blood Center. The identity of all cell lines was verified by STR analysis (Genetica DNA Laboratories, Burlington, N.C., USA) and absence of Mycoplasma sp. contamination was determined using Lonza MycoAlert (Lonza Walkersville, Inc., Walkersville, Md., USA). Cell lines were cultured in 5% CO2 in a humidified atmosphere at 37° C. in RPMI medium supplemented with 10% fetal bovine serum (FBS) and antibiotics (100 U/ml penicillin and 100 μg/ml streptomycin). Cell viability analysis. Cells were resuspended and plated at a concentration of 2×10^5 cells in 200 μL in 96-well tissue culture plates. Media with peptides was replaced every 48 hours. To assess the number of viable cells, cells were resuspended in PBS and 10 μL mixed in a 1:1 ratio with 0.4% Trypan Blue (Thermo Fisher) and counted using a hematocytometer (Hausser Scientific, Horsham, Pa., USA). To assess viability using an ATP-based assay, cell viability was assessed using the CellTiter-Glo Luminescent Viability assay, according to the manufacturer's instructions (Promega). Luminescence was recorded using the Infinite M1000Pro plate reader using integration time of 250 milliseconds (Tecan).

[4] = tested on: primary MLL-rearranged AML; assay: Primary patient derived xenograft, hCD45 staining of bone marrow; assay type: in vivo, NSG mice; conditions: 25 mg/kg daily intraperitoneal, 21 days
Description: Mouse studies. All mouse experiments were carried out in accordance with institutional animal protocols. Two hundred thousand primary AML MLL-rearranged leukemia cells were suspended in […] of PBS and transplanted via tail vein injection into 8-week-old sublethally irradiation (200 rad) female NOD.Cg-Prkdc(scid)Il2rg(tm1Wjl)/SzJ mice (The Jackson Laboratory, Bar Harbor, Me., USA). Recipient mice were maintained on antibiotic supplementation in chow (0.025% trimethoprim, 0.124% sulfamethoxazole, Sulfatrim). Three days after transplant, mice were randomly assigned to experimental treatment groups. […]

[5] = tested on: MOLM13 cells; assay: Giemsa staining of cells for morphology; assay type: cell-based, human; conditions: 20 μM, 6 hours
Description: Giemsa staining of cells for Morphology. MOLM13 cells were resupended to a concentration of 1×10^6 cells in 1 milliliter of PBS. Using the benchtop Cytospin Centrifuge instrument (ThermoFisher Scientific), 200 uL of the cell suspension was applied white clipped Cytofunnels (ThermoFisher Scientific) to glass microscope slides (2×10^5 cells/slide). Dip Quick Stain (J-322, Jorgensen Laboratories, Inc) was used for per manufacturer's protocol for the polychromic stain of cells.

[6] = tested on: MV411 cells; assay: CellTiter Glo viability of MV411 cells with ectopic BCL2 expression; assay type: cell-based, human; conditions: MV411 cells with MSCV-Ires-GFP BCL2 vector
[7] = tested on: primary patient-derived MLL-rearranged leukemia cells; assay: Primary patient derived xenograft, survival analysis; assay type: in vivo, NSG mice; conditions: 50 mg/kg daily intraperitoneal, days 3-17, log-rank p=0.0038
Description: Mouse studies. All mouse experiments were carried out in accordance with institutional animal protocols. Two hundred thousand primary AML MLL-rearranged leukemia cells were suspended in […] of PBS and transplanted via tail vein injection into 8-week-old sublethally irradiation (200 rad) female NOD.Cg-Prkdc(scid)Il2rg(tm1Wjl)/SzJ mice (The Jackson Laboratory, Bar Harbor, Me., USA). Recipient mice were maintained on antibiotic supplementation in chow (0.025% trimethoprim, 0.124% sulfamethoxazole, Sulfatrim). Three days after transplant, mice were randomly assigned to experimental treatment groups. MYBMIM peptide suspended in PBS was administered daily through intraperitoneal injection at a daily dose of 50 mg/kg. Mice were treated from days 3-17 of this study for a total of 14 days and then monitored daily with clinical examination for survival analysis.
Statistical Analysis. For comparisons between two sample sets, statistical analysis of means was performed using 2-tailed, unpaired Student's t-tests. Survival analysis was done using the Kaplan-Meier method, as assessed using a log-rank test. For gene expression analysis, statistical significance was assessed using paired t-tests.

CC[C@@H](C)[C@@H](NC(=O)[C@@H](CCCCN)NC(=O)[C@@H](CCC(=O)O)NC(=O)[C@@H](CC(C)C)NC(=O)[C@@H](CCC(=O)O)NC(=O)[C@@H](CC(C)C)NC(=O)[C@@H](CC(C)C)NC(=O)[C@@H](CC(C)C)NC(=O)[C@@H](CCSC)NC(=O)[C@@H](CO)NC(=O)[C@H](NC(=O)[C@@H](CCC(=O)O)NC(=O)[C@@H](CC(N)=O)NC(=O)[C@@H](CCC(=O)O)NC(=O)[C@@H](CC(C)C)NC(=O)[C@@H](CCCCN)NC(C)=O)[C@H](C)O)C(=O)N[C@H](CCCNC(=N)N)C(=O)N[C@H](CCCCN)C(=O)NCC(=O)NCC(=O)N[C@H](CCCNC(=N)N)C(=O)N[C@H](CCCNC(=N)N)C(=O)N[C@H](CCCNC(=N)N)C(=O)N[C@H](CCC(N)=O)C(=O)N[C@H](CCCNC(=N)N)C(=O)N[C@H](CCCNC(=N)N)C(=O)N[C@H](CCCCN)C(=O)N[C@H](CCCCN)C(=O)N[C@H](CCCNC(=N)N)C(=O)NCC(=O)N[C@H](Cc1ccc(O)cc1)C(N)=O [MYBMIM]
apoptosis (Annexin-V staining) [1]: induction of apoptosis | MYB:CBP complex in cells [2]: displacement and dissociation of MYB:CBP complex | AML cell death (live cells on Day 6) [3]: induction of AML cell death | leukemia burden in bone marrow (hCD45 staining) [4]: decrease in the leukemia burden | cell morphology [5]: induces cell death without morphologic evidence of differentiation | rescue of peptide-induced apoptosis by ectopic Bcl2 expression (cell viability) [6]: partial rescue | survival of mice (Kaplan-Meier) [7]: prolongs survival | survival of mice (Kaplan-Meier) ([7]; listed as SEQ ID NO:1): impeded leukemia progression and extended survival
